Measured values reported in ChEMBL document CHEMBL5053549, “Discovery of Potent and Novel Dual PARP/BRD4 Inhibitors for Efficient Treatment of Pancreatic Cancer” (J Med Chem, 2021).

How the values were obtained:
[1] = target: T1, Bromodomain-containing protein 4 (Homo sapiens, UniProt O60885); test: Inhibition of recombinant BRD4 (unknown origin) at 0.5 uM incubated for 120 mins by TR-FRET assay relative to control
[2] = target: Poly [ADP-ribose] polymerase 1 (Homo sapiens, UniProt P09874); test: Inhibition of PARP1 (unknown origin) incubated for 45 mins in presence of biotinylated-NAD+ by microplate reader analysis
SW1990 = test: Antiproliferative activity against human SW1990 cells assessed as reduction in cell viability after 4 days by MTT assay; type: functional, cell-based; details: SW1990, 96 h
MDA-MB-231 = test: Antiproliferative activity against human MDA-MB-231 cells assessed as reduction in cell viability after 7 days; type: functional, cell-based; details: MDA-MB-231, 168 h
[3] = target: T1, Bromodomain-containing protein 4; test: Inhibition of recombinant BRD4 (unknown origin) incubated for 120 mins by TR-FRET assay

Sequence of Poly [ADP-ribose] polymerase 1 (P09874 whole entry): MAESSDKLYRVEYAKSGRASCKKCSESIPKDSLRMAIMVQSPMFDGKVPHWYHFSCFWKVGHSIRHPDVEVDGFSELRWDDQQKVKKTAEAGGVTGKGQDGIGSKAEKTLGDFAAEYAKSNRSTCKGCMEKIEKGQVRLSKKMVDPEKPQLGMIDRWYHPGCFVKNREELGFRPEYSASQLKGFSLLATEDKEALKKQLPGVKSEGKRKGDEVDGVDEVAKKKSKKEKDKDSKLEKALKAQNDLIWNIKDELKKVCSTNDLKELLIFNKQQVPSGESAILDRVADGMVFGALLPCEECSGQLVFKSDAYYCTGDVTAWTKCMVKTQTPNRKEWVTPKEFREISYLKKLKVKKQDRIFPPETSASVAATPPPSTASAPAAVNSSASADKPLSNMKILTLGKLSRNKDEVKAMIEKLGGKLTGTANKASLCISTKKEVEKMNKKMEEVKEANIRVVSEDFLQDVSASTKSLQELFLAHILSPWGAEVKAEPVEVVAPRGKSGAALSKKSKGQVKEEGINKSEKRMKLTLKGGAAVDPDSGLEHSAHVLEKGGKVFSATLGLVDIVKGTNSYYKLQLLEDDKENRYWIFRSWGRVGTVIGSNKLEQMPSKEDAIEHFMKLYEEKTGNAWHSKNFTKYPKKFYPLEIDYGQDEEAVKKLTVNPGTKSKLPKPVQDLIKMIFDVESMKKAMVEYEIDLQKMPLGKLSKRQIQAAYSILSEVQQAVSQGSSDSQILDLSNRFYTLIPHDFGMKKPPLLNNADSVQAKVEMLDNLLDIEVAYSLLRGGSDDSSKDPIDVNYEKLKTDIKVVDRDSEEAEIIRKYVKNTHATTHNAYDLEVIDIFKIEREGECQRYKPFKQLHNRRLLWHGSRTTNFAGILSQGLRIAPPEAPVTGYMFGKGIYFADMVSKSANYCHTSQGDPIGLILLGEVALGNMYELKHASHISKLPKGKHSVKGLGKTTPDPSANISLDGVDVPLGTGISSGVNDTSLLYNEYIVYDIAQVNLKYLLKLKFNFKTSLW

inhibition [1] [%] | IC50 [2] [nM] | IC50 (SW1990) [nM] | IC50 (MDA-MB-231) [nM] | IC50 [3] [nM] | SMILES
21 | 461 | – | – | – | CC[C@@H]1C(=O)N(C)c2cnc(Nc3ccc(-c4nc5c(C(N)=O)cccc5[nH]4)cc3OC)nc2N1Cc1ccccc1
– | 150 | 2120 | 430 | 237 | CC[C@@H]1C(=O)N(C)c2cnc(Nc3ccc(-c4nc5c(C(N)=O)cccc5[nH]4)cc3OC)nc2N1C1CCCC1
52 | 338 | 3740 | 1250 | – | CC[C@@H]1C(=O)N(C)c2cnc(Nc3ccc(-c4nc5c(C(N)=O)cccc5[nH]4)cc3OC)nc2N1Cc1ccc(C)s1
74 | 236 | – | – | – | CC[C@@H]1C(=O)N(C)c2cnc(Nc3ccc(C(C)c4nc5c(C(N)=O)cccc5[nH]4)cc3OC)nc2N1C1CCCC1 (some centres not stated)
– | 498 | – | – | 276 | CC[C@@H]1C(=O)N(C)c2cnc(Nc3ccc(CC(=O)NCc4nc5c(C(N)=O)cccc5[nH]4)cc3OC)nc2N1C1CCCC1
– | 341 | – | – | 374 | CC[C@@H]1C(=O)N(C)c2cnc(Nc3ccc(C(=O)NCc4nc5c(C(N)=O)cccc5[nH]4)cc3OC)nc2N1C1CCCC1
– | 127 | 1620 | 470 | 250 | COc1cc(-c2nc3c(C(N)=O)cccc3[nH]2)ccc1Nc1ncc2c(n1)N(C1CCCC1)[C@H](C)C(=O)N2C
17 | 570 | – | – | – | CC[C@@H]1C(=O)N(C)c2cnc(Nc3ccc(-c4nc5c(C(N)=O)cccc5[nH]4)cc3OC)nc2N1Cc1ccc(OC)cc1OC
